Assay results taken from patent US20060160197A1 (priority 2004, published 2006).

Legend:
Assay type in all cases: physicochemical
[1] = Example 9 reactive solvent extraction, 90% Alamine 336/10% 1-octanol, 75° C.; conditions: pH 2 to 3
Method: (§1) A variety of analytical methods can be employed to analyze the reactants and products produced using the present methods include HPLC, GC, ion selective electrodes, MS, NMR, etc. HPLC was used to measure glycolic acid and various related products. Briefly, samples are diluted with water (as needed to be within HPLC detection range) and mixed 1:1 with 0.2 M n-propanol in water (HPLC internal standard). HPLC Analytical Method: (BioRad HPX 87H ion exclusion column (BioRad, Hercules, Calif.), 300 mm×7.8 mm; 0.01 N H2SO4 mobile phase; 1.0 mL/min flow at 50° C.; 10 μL injection volume; RI detector and UV 210 nm, 20 min analysis time). HPLC Equipment: (Waters 2695 ‘Alliance’ Separations Module, 2410 Refractive Index Detector, 2487 Dual λ Absorbance Detector and Empower Pro Software (Waters Corp, Milford, Mass.).
Solvent Extraction Using Approximately 90% C8-C10 Trialkylamine in Combination with 10% 1-Octanol at 75° C.
(§2) Into a 4-mL glass reactor equipped with magnetic stir bar was placed 1 mL of a mixed solvent containing 90% (volume/volume) Alamine® 336 (Cognis), 10% (volume/volume) 1-octanol. The pH of an aqueous solution of ammonium glycolate (5 wt % to 40 wt %) was adjusted to pH 2 to 3 with concentrated sulfuric acid, then 1 mL of the resulting aqueous solution was added to the reactor. The resulting mixture was stirred for 30 minutes at 75° C.

[2] = Example 23 back extraction with aqueous glycolic acid from loaded solvent (70% trialkylamine/30% toluene), 140° C.; conditions: 70% C8-C10 trialkylamine/30% toluene, 40 psig nitrogen
Method: as §1
Back Extraction from a Loaded Solvent of Approximately 70% C8-C10 Trialkylamine in Combination with 30% Toluene
(§3) The vessel was then closed, and the headspace purged with nitrogen. The resulting mixture was stirred for 60 minutes at 140° C. under 40 psig (˜275.8 kPa) nitrogen. The stirring was stopped and the two phases allowed to separate at 140° C., then the organic phase was sampled under pressure through the top dip tube into a Hoke cylinder, and aqueous phases was sampled under pressure through the bottom dip tube into another Hoke cylinder.

[3] = Example 12 reactive solvent extraction, 90% Alamine 336/10% toluene, 25° C.; conditions: pH 2 to 3
Method: as §1
Solvent Extraction Using Approximately 90% C8-C10 Trialkylamine in Combination with 10% Toluene at 25° C.
as §2, with “toluene.” for “1-octanol.”, “25°” for “75°”

[4] = Example 18 back extraction using water from loaded solvent (70% Alamine 336/10% MIBK/20% kerosene), 140° C.; conditions: back extraction into deionized water, 40 psig nitrogen
Method: as §1
Following the procedures in Example 1, into a 1-L cylindrical glass vessel on an extraction mixer (mix by rotating back and forth vertically) was placed 100 mL of a mixed solvent containing 70% (volume/volume) Alamine® 336 (Cognis), 10% (volume/volume) methyl isobutyl ketone (MIBK) and 20% (volume/volume) kerosene. The pH of an aqueous solution of ammonium glycolate (10 wt % to 50 wt %) was adjusted to approximately pH 2 to 3 with concentrated sulfuric acid, then 100 mL of the resulting aqueous solution was added to the extraction mixer. The resulting mixture was stirred for 60 minutes at room temperature. […] The organic phase was collected and used in the back extraction. This organic phase containing glycolic acid is referred as “loaded solvent” below.
Back Extraction Using Water from a Loaded Solvent of Approximately 70% C8-C10 Trialkylamine in Combination with 10% Methyl Isobutyl Ketone and 20% Kerosene
as §3, with “Into a 85-mL pressure reaction glass tube (pressure reaction vessel, from Andrews Glass Co.) equipped with magnetic stir bar and double dip tubes was placed 10 mL deionized water and 10 mL of the loaded solvent (see Example 16). The vessel” for “The vessel”

[5] = Example 17 back extraction with aqueous glycolic acid from loaded solvent (70% Alamine 336/10% MIBK/20% kerosene), 120° C.; conditions: 40 psig nitrogen
Method: as §1
Following the procedures in Example 1, into a 1-L cylindrical glass vessel on an extraction mixer (mix by rotating back and forth vertically) was placed 100 mL of a mixed solvent containing 70% (volume/volume) Alamine® 336 (Cognis), 10% (volume/volume) methyl isobutyl ketone (MIBK) and 20% (volume/volume) kerosene. The pH of an aqueous solution of ammonium glycolate (10 wt % to 50 wt %) was adjusted to approximately pH 2 to 3 with concentrated sulfuric acid, then 100 mL of the resulting aqueous solution was added to the extraction mixer. […]

[6] = Example 3 reactive solvent extraction, 70% Alamine 336/10% MIBK/20% kerosene, 75° C.; conditions: pH 2 to 3
Method: as §1
Solvent Extraction Using Approximately 70% C8-C10 Trialkylamine in Combination with 10% Methyl Isobutyl Ketone and 20% Kerosene at 75° C.
as §2, with “70%” for “90%”, “methyl isobutyl ketone (MIBK) and 20% (volume/volume) kerosene.” for “1-octanol.”

[7] = initial 3.6 wt % glycolic acid in aqueous phase
[8] = initial 8.5 wt % glycolic acid in aqueous phase
[9] = initial 12.1 wt % glycolic acid in aqueous phase
[10] = initial 16.1 wt % glycolic acid in aqueous phase
[11] = initial 20.6 wt % glycolic acid in aqueous phase
[12] = initial 25.1 wt % glycolic acid in aqueous phase
[13] = initial 29.1 wt % glycolic acid in aqueous phase
[14] = initial 32.8 wt % glycolic acid in aqueous phase

O=C(O)CO [glycolic acid]
Partition coefficient (wt % org./wt % aq.) [1, 7]: 0.54
Partition coefficient (wt % org./wt % aq.) [1, 8]: 0.56
Partition coefficient (wt % org./wt % aq.) [1, 9]: 0.62
Partition coefficient (wt % org./wt % aq.) [1, 10]: 0.63
Partition coefficient (wt % org./wt % aq.) [1, 11]: 0.73
Partition coefficient (wt % org./wt % aq.) [1, 12]: 0.75
Partition coefficient (wt % org./wt % aq.) [1, 13]: 0.73
Partition coefficient (wt % org./wt % aq.) [1, 14]: 0.70
Partition coefficient (wt % org./wt % aq.) ([2]; initial 20.0 wt % glycolic acid in aqueous phase, 14.2 wt % in loaded solvent): 0.44
Partition coefficient (wt % org./wt % aq.) ([2]; initial 40.0 wt % glycolic acid in aqueous phase, 15.7 wt % in loaded solvent): 0.45
Partition coefficient (wt % org./wt % aq.) [3, 7]: 1.22
Partition coefficient (wt % org./wt % aq.) [3, 8]: 1.41
Partition coefficient (wt % org./wt % aq.) [3, 9]: 1.46
Partition coefficient (wt % org./wt % aq.) [3, 10]: 1.23
Partition coefficient (wt % org./wt % aq.) [3, 11]: 1.20
Partition coefficient (wt % org./wt % aq.) [3, 12]: 1.26
Partition coefficient (wt % org./wt % aq.) [3, 13]: 1.00
Partition coefficient (wt % org./wt % aq.) [3, 14]: 0.86
Partition coefficient (wt % org./wt % aq.) ([4]; initial 3.9 wt % glycolic acid in loaded solvent): 0.48
Partition coefficient (wt % org./wt % aq.) ([4]; initial 11.3 wt % glycolic acid in loaded solvent): 0.37
Partition coefficient (wt % org./wt % aq.) ([4]; initial 16.0 wt % glycolic acid in loaded solvent): 0.34
Partition coefficient (wt % org./wt % aq.) ([4]; initial 17.5 wt % glycolic acid in loaded solvent): 0.35
Partition coefficient (wt % org./wt % aq.) ([5]; initial 20.0 wt % glycolic acid in aqueous phase, 16.0 wt % in loaded solvent): 0.59
Partition coefficient (wt % org./wt % aq.) ([5]; initial 40.0 wt % glycolic acid in aqueous phase, 17.5 wt % in loaded solvent): 0.51
Partition coefficient (wt % org./wt % aq.) [6, 7]: 0.16
Partition coefficient (wt % org./wt % aq.) [6, 8]: 0.22
Partition coefficient (wt % org./wt % aq.) [6, 11]: 0.49
Partition coefficient (wt % org./wt % aq.) [6, 12]: 0.56
Partition coefficient (wt % org./wt % aq.) [6, 13]: 0.54
Partition coefficient (wt % org./wt % aq.) [6, 14]: 0.52
